Assay results reported in patent US8217045B2, “Organic compounds” (Novartis AG, priority 2007, dated 2012).
Residue numbers refer to the chain shown, from its start.

What was measured:
c-Abl (His-cAbl) = target: T1, c-Abl (His-cAbl) (Homo sapiens, UniProt P00519); test: in vitro enzyme assay, wild-type Abl catalysed phosphorylation; format: biochemical; conditions: 16 nM His-cAbl, 10 μM ATP, 1 hour at 30° C.; read-out: IC50, inhibition of wild-type Abl catalysed phosphorylation
T1 construct: The His-tagged kinase domain of Abl is cloned and expressed; His tag; made in house; host or cells: baculovirus/Sf9
T1 sequence (P00519 242-493 limits assumed): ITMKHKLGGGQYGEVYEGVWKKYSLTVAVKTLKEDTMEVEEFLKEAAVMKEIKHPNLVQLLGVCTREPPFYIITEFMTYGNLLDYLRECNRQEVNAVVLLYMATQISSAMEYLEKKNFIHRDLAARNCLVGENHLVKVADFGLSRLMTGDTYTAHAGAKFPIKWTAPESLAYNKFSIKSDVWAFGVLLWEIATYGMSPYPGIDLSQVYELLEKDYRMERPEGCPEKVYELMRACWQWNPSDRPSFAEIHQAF
Experimental: (§1) Test for activity against wild-type and mutant Abl protein tyrosine kinase:
(§2) The test, an in vitro enzyme assay, is conducted as a filter binding assay as follows: The His-tagged kinase domain of Abl is cloned and expressed in the baculovirus/Sf9 system as described by Bhat et al., J. Biol. Chem. 1997; 272:16170-16175. A protein of 37 kD (Abl kinase) is purified by a two-step procedure over a Cobalt metal chelate column followed by an anion exchange column with a yield of 1-2 mg/L of Sf9 cells. The purity of the Abl kinase is >90% as judged by SDS-PAGE after Coomassie blue staining.
(§3) Based on the optimized assay conditions for the individual kinases a specific assay set-up was chosen. The assays were prepared and incubated on a liquid handling robot system using 384-well plates. To the assay plates containing 50 nL compound or control solutions, 4.5 μL of solution A consisting of the peptide substrate and ATP in assay buffer were added. The reactions were initiated by adding 4.5 μL of solution B consisting of the respective kinase in assay buffer. The reactions were incubated for 1 hour at 30° C. in a final reaction volume of 9.05 μL. Based on a generic assay buffer (50 mM HEPES pH7.5, 1 mM DTT, 0.02% Tween20, 0.02% BSA), following components were added depending on the chosen kinase: • c-Abl: 16 nM His-cAbl, 5 μM peptide substrate (FITC-Ahx-EAIYAAPFAKKK-CONH2), 10 mM MgCl2, 10 μM ATP • c-Abl-T315I: 2.4 nM His-cAbl-T315I, 5 μM peptide substrate (FITC-Ahx-EAIYAAPFAKKK-CONH2), 10 mM MgCl2, 10 μM ATP
(§4) After incubation, the kinase reactions were stopped by the addition of 16 μL of stop solution (100 mM HEPES, 5% DMSO, 0.1% Coating reagent, 10 mM EDTA, 0.015% Brij 35). Subsequently, the assay plates were transferred to a Caliper LabChip3000 reader and the unphosphorylated substrate and the phosphorylated product were separated and quantitated in a microfluidic chip.

Bcr-Abl = Bcr-Abl (Homo sapiens, UniProt P00519); test: Bcr-Abl phosphorylation capture ELISA in 32D-Bcr-Abl cells; format: cell-based, murine; conditions: 90 min at 37° C., read-out: IC50, reduction of Bcr-Abl phosphorylation
Description: 32D cl3 cells are obtained from the American Type Culture Collection (ATCC CRL11346) and Ba/F3 cells are obtained from the German Collection of Microorganisms and Cell Cultures (DSMZ, Braunschweig and DSMZ No. ACC 300) Palacios et al., Nature, 1984; 309:126 and Palacios et al., Cell, 1985:41:72.
Oncogene 1996; 12: 839-46; and Okuda K, Golub T R, Gilliland D G, Griffin J D. p210BCR-ABL, p190BCR-ABL, and TEL/ABL activate similar signal transduction pathways in hematopoietic cell lines. Oncogene 1996; 13:1147-52.)
The cells express the fusion Bcr-Abl protein with a constitutively active Abl kinase and proliferate growth factor independent. The cells are expanded in RPMI 1640 (AMIMED), 10% fetal calf serum (FCS), 2 mM glutamine (Gibco) (“complete medium”), and a working stock is prepared by freezing aliquots of 2×10^6 cells per vial in freezing medium (95% FCS, 5% DMSO (SIGMA)). After thawing, the cells are used during maximally 10-12 passages for the experiments. The antibody anti-Abl SH3 domain cat. #06-466 from Upstate Biotechnology is used for the ELISA. For detection of Bcr-Abl phosphorylation, the anti-phosphotyrosine antibody Ab PY20, labelled with alkaline phosphatase ([…]) from ZYMED (cat. #03-7722) is used. […]

[1] = target: T2, c-Abl-T315I (His-cAbl-T315I) (Homo sapiens, UniProt P00519, T315I); test: in vitro enzyme assay, T315I mutant Abl catalysed phosphorylation; format: biochemical; conditions: 2.4 nM His-cAbl-T315I, 10 μM ATP, 1 hour at 30° C.; read-out: IC50, inhibition of T315I mutant Abl catalysed phosphorylation
T2 construct: The His-tagged kinase domain of Abl is cloned and expressed; His tag; made in house; host or cells: baculovirus/Sf9
T2 sequence (P00519 242-493 T315I limits assumed): T1 sequence (P00519 242-493 limits assumed) with T74I
Experimental: as §1, §2, §3, §4

Row | Structure (SMILES) | IC50 (c-Abl (His-cAbl)) | melting point | also measured
1 | CN1C2CCCC1CN(Cc1ccc(NC(=O)c3cccc4cc(Oc5ccnc(NC(=O)C6CC6)c5)ccc34)cc1C(F)(F)F)C2 [Example 11] | < 0.005 µM |  | 
2 | Cc1cn(-c2cc(NC(=O)c3cccc4cc(Oc5ccnc(NC(=O)C6CC6)c5)ccc34)cc(C(F)(F)F)c2)cn1 [Example 2, 6-[[2-(Cyclopropylcarbonyl)amino-pyridin-4-yl]oxy]-naphthalene-1-carboxylic acid [3-(4-methyl-1H-imidazol-1-yl)-5-(trifluoromethylphenyl)]amide] |  | 242 to 244 °C | IC50 (Bcr-Abl): 0.021 to 0.179 µM
3 | Cc1cn(-c2cc(NC(=O)c3cccc4cc(Oc5ccnc(Nc6nccs6)c5)ccc34)cc(C(F)(F)F)c2)cn1 [Example 22, 6-[[N-[2-(4-methyl-2-thiazolyl)amino]-pyridin-4-yl]oxy]-naphthalene-1-carboxylic acid [3-(4-methyl-1H-imidazol-1-yl)-5-(trifluoromethylphenyl)]amide] |  | 277 to 282 °C | 
4 | CN1CCN(Cc2ccc(NC(=O)c3cccc4cc(Oc5ccnc(NC(=O)C6CC6)c5)ccc34)cc2C(F)(F)F)CC1 [Example 8, 6-[[2-(Cyclopropylcarbonyl)amino-pyridin-4-yl]oxy]-naphthalene-1-carboxylic acid [4-[(4-methyl-1-piperazinyl)methyl]-3-trifluoromethyl-phenyl]amide] | < 0.005 µM |  | 
5 | Cc1cn(-c2cc(NC(=O)c3cccc4cc(Oc5cc(NC(=O)C6CC6)ncn5)ccc34)cc(C(F)(F)F)c2)cn1 [Example 20, 6-[[6-(Cyclopropanecarbonyl)amino-pyrimidin-4-yl]oxy]-naphthalene-1-carboxylic acid [3-(4-methyl-imidazol-1-yl)-5-trifluoromethyl-phenyl]-amide] |  | 216 to 220 °C | 
6 | CC(=O)Nc1cc(Oc2ccc3c(C(=O)Nc4cc(-n5cnc(C)c5)cc(C(F)(F)F)c4)cccc3c2)ccn1 [Example 1, 6-[[2-(Acetylamino)-pyridin-4-yl]oxy]-naphthalene-1-carboxylic acid [3-(4-methyl-1H-imidazol-1-yl)-5-(trifluoromethylphenyl)]amide] | < 0.005 µM |  | 
7 | CC(=O)Nc1cc(Oc2ccc3c(C(=O)Nc4cc(-n5cnc(C)c5)cc(C(F)(F)F)c4)cccc3c2)ncn1 [Example 19, 6-[[6-(Acetylamino)-pyrimidin-4-yl]oxy]-naphthalene-1-carboxylic acid [3-(4-methyl-imidazol-1-yl)-5-trifluoromethyl-phenyl]-amide] | < 0.005 µM |  | 
8 | Cc1cn(-c2cc(NC(=O)c3cccc4cc(Oc5ccnc(NC(=O)C(C)(C)C)c5)ccc34)cc(C(F)(F)F)c2)cn1 [Example 3] |  | > 120 °C | 
9 | Cc1cn(-c2cc(NC(=O)c3cccc4cc(Oc5ccnc(NC(=O)[C@@H]6CCCN6)c5)ccc34)cc(C(F)(F)F)c2)cn1 [Example 25, 6-[[2-[(2S)-2-Pyrrolidinecarbonyl]amino-pyridin-4-yl]oxy]-naphthalene-1-carboxylic acid [3-(4-methyl-1H-imidazol-1-yl)-5-(trifluoromethylphenyl)]amide] |  |  | IC50 [1]: 0.065 to 0.068 µM
10 | Cc1cn(-c2cc(NC(=O)c3cccc4cc(Oc5ccnc(NC(=O)C(C)(C)O)c5)ccc34)cc(C(F)(F)F)c2)cn1 [Example 4, 6-[[2-(2-Hydroxy-2-methylpropylcarbonyl)amino-pyridin-4-yl]oxy]-naphthalene-1-carboxylic acid [3-(4-methyl-1H-imidazol-1-yl)-5-(trifluoromethylphenyl)]amide] |  | 248 to 251 °C | 
11 | Cc1ncc(-c2cc(NC(=O)c3cccc4cc(Oc5ccnc(NC(=O)C6CC6)c5)ccc34)cc(C(F)(F)F)c2)[nH]1 [Example 15] |  |  | IC50 [1]: 0.036 to 0.057 µM
12 | Cc1cn(-c2cc(NC(=O)c3cccc4cc(Oc5ccnc(NC(=O)N(C)C)c5)ccc34)cc(C(F)(F)F)c2)cn1 [Example 5] | < 0.005 µM | > 138 °C | 
13 | Cc1cn(-c2cc(NC(=O)c3cccc4cc(Oc5ccnc(Nc6ccccn6)c5)ccc34)cc(C(F)(F)F)c2)cn1 [Example 6, 6-[[2-[(2-Pyridinyl)amino]-4-pyridinyl]oxy]-naphthalene-1-carboxylic acid [3-(4-methyl-1H-imidazol-1-yl)-5-(trifluoromethylphenyl)]amide] |  | 204 to 206 °C | IC50 [1]: 0.047 to 0.049 µM
14 | CC(=O)Nc1cc(Oc2ccc3c(C(=O)Nc4ccc(CN5CCN(C)CC5)c(C(F)(F)F)c4)cccc3c2)ccn1 [Example 7, 6-[[2-(Acetylamino)-pyridin-4-yl]oxy]-naphthalene-1-carboxylic acid [4-[(4-methyl-1-piperazinyl)methyl]-3-trifluoromethyl-phenyl]amide] | < 0.005 µM | 112 to 114 °C | 
15 | Cc1cn(-c2cc(NC(=O)c3cccc4cc(Oc5cc(N)ncn5)ccc34)cc(C(F)(F)F)c2)cn1 [Example 21, 6-[[6-Amino-pyrimidin-4-yl]oxy]-naphthalene-1-carboxylic acid [3-(4-methyl-imidazol-1-yl)-5-trifluoromethyl-phenyl]-amide] |  | > 148 °C | 
